Laboratory results from US20060003016A1, “Therapeutic method for endolymphatic hydrops associated diseases” (priority 2004, published 2006).
Where two headings read alike, the source gives them in different places.

Test system: patients with Meniere's disease
Source text: In the present case who could be followed up for more than 24 months after treatment with water intake, the therapeutic effect was judged by using the criteria of AAO-HNS (1995)^14), 15). Proviso that in an examination on changes of the hearing, although the criteria in the four-frequency pure-tone averages (PTA) of AAO-HNS (1995)^14) adopted mean values of the hearing levels consisting of 500 Hz, 1000 Hz, 2000 Hz and 3000 Hz, in our case, the value of 4000 Hz was used in stead of that of 3000 Hz.
Therapeutic effect for vertigo^14), 15) was calculated according to the following equation. [formula]
Namely, in the present case, vertiginous attack in 6 months during 18 months-24 months after the treatment was 0 time, and average numbers of rotatory vertigo per month for 6 months before the treatment were 2 times (i.e. onset in Mar. 5, 2000 and Jul. 22, 2000 within 6 months before Aug. 5, 2000). Consequently, applying the above equation: [formula] […] Clinical Case 4 Low Frequency Sensorineural Hearing Loss of the Right Ear

O [water intake, water]
0 time: vertiginous attack in 6 months during 18 months-24 months after the treatment (case 3, water intake, 2 times in 6 months before) | vertiginous attack in 6 months during 18 months-24 months after the treatment (case 6, water intake, 4 times estimated in 6 months before) | vertiginous attack in 6 months during 18 months-24 months after the treatment (case 7, water intake, 0 time in 6 months before) | vertiginous attack in 6 months during 18 months-24 months after the treatment (case 8, water intake, 1 in 6 months before)
complete control: category of therapeutic effect for vertigo, AAO-HNS criteria (case 3, water intake) | category of therapeutic effect for vertigo, AAO-HNS criteria (case 6, water intake) | category of therapeutic effect for vertigo, AAO-HNS criteria (case 7, water intake) | category of therapeutic effect for vertigo, AAO-HNS criteria (case 8, water intake)
